Assay results published in BindingDB's records for doi:10.1016/j.bmcl.2008.04.031 (The University of Tokyo, 2008).
pIC50: −log10 of the molar value.

Assay: Degradation promoting activity of FLAG tagged cIAP1 expressed in human HT1080 cells after 3 hrs by Western blotting analysis

SMILES | pIC50
CC(C)C[C@H](NC(=O)[C@@H](O)[C@H](N)Cc1ccccc1)C(=O)OCCNS(=O)(=O)c1cccc2c(N(C)C)cccc12 [(S)-2-(1-(dimethylamino)naphthalene-5-sulfonamido)ethyl 2-((2S,3R)-3-amino-2-hydroxy-4-phenylbutanamido)-4-methylpentanoate] | 5.73
COC(=O)[C@H](CC(C)C)NC(=O)[C@@H](O)[C@H](N)Cc1ccccc1 [(S)-methyl 2-((2S,3R)-3-amino-2-hydroxy-4-phenylbutanamido)-4-methylpentanoate] | 6.16
